The source of these data is patent US9908908B2, “Tenofovir prodrug and pharmaceutical uses thereof” (Jiangsu Hansoh Pharmaceutical Co., Ltd., priority 2012, dated 2018).

For one series, the system named is hepatitis B virus (HBV). In words: In vitro anti-hepatitis B virus activity (HBV DNA-replication, dot blot). Format: cell-based. Here is the method:
HepG 2.2.15 cell was used as the hepatitis B virus (HBV) vehicle to determine the inhibition effect of the compounds on DNA-replication of HBV.
Test method: HepG 2.2.15 cells were seeded into a 96-well culture plate. Various dilutions of test samples and positive control were added, respectively, after 24 hours, in which a cell control well was set. The medium was replaced with culture containing various dilutions of test samples after 72 hours. The supernatants and HepG 2.2.15 cells were collected after 6 days of culture.

In a further series the test system is HepG 2.2.15 cells. Put plainly: Cytotoxicity test (CellTiter-Blue). In kind it is cell-based. Here is the method: (§1) Test method: HepG 2.2.15 cells were seeded into a 96-well culture plate and various dilutions of test samples and positive control were added, respectively. CellTiter-Blue (Promega, Catalog #G8081) was added for 6 days of culture.
Series [1] in a line: Cytotoxicity test (CellTiter-Blue). Format: cell-based. The following applies: human; HepG 2.2.15 cells, 6 days of culture; read-out: Toxicity CC50. As to the method:
as §1

The nature of series [2]: Stability test in acidic medium (hydrochloric acid solution pH 2.0). The following applies: Acid medium (pH = 2). Format: physicochemical. As to the method:
4.5 mL of 36% hydrochloric acid was transferred into a 1 L volumetric flask and diluted with water to 1 L to prepare a stock solution. Then 10 mL of the above solution was transferred into a 50 mL volumetric flask and diluted with water to 50 mL to prepare the hydrochloric acid solution with pH 2.0.
5.0 mg of GS-7340 were transferred into a 5 mL volumetric flask and mixed with 2.5 mL of isopropyl alcohol to dissolve GS-7340, and then the hydrochloric acid solution (pH 2.0) was added to 5 mL. The solution was shaken well and filtered for using.
5.0 mg of compound Ia1 were transferred into a 5 mL volumetric flask and mixed with 2.5 mL of isopropyl alcohol to dissolve compound Ia1, and then the hydrochloric acid solution (pH 2.0) was added to 5 mL. The solution was shaken well and filtered for using.
(§2) The prepared sample was filled into the chromatography vial as the initial sample and immediately injected. Meanwhile, the rest of the samples were put into a 37° C. incubator, and were injected into the HPLC system after 6 hours.

Series [3] can be described thus: Stability test in simulated gastric juice (pepsin, pH 2.0). Format: physicochemical. Here is the method:
10 ml of the stock solution and 500.0 mg of pepsin were transferred into a 50 mL volumetric flask and diluted with water to 50 ml, which was then subjected to ultrasound to dissolve the pepsin (the solution was not clear now) and then filtered to give a clear solution as simulated gastric juice.
5.0 mg of GS-7340 were transferred into a 5 mL volumetric flask and mixed with 2.5 mL of isopropyl alcohol to dissolve GS-7340, and then the simulated gastric juice was added to 5 mL. The solution was shaken well and filtered for using.
5.0 mg of compound Ia1 were transferred into a 5 mL volumetric flask and mixed with 2.5 mL of isopropyl alcohol to dissolve compound Ia1, and then the simulated gastric juice was added to 5 mL. The solution was shaken well and filtered for using.
as §2

Series [4] in a line: Metabolic stability in fresh human whole blood and distribution test in PBMCs. In kind it is in vitro ADME. As to the method:
Different tenofovir prodrugs were incubated together with fresh human whole blood at 37° C. Plasma and PBMCs were separated, respectively, from the whole blood (Ficoll density gradient centrifugation method) after 1 hour and 2 hours incubation to determine the concentrations of prototype drug and metabolite-tenofovir in plasma and PBMCs. The PBMCs were counted via cell counter and each PBMC was treated as 200 fL to calculate intracellular drug concentration.
20 μL of internal standard solution (400 ng/mL SN-38 solution), […], methanol-water (50:50, v/v), and 200 μL acetonitrile were added to 100 μL plasma sample or PBMC sample, respectively. The mixture was mixed by vortex for 1 min and centrifuged for 5 min (14000 rpm). 20 μL supernatant and 180 μl mobile phase were mixed by vortex for 1 min, and 10 μL of the above mixture was injected into LC/MS/MS for analysis.

The subject of another series is HIV-1 (IIIb). Put plainly: microbe, parasite or virus in culture. Format: cell-based. As to the method: 1) MT-2 cells were infected with HIV-1 (IIIb) to form multiplicity of infection (MOI) 0.01 TCID50 per cell.
2) The mixture of virus and cells was incubated in a 384-well plate for 3 days.
4) The supernatant was transferred to a new plate and incubated with reporter cells (HeLa) for 24 hours.
5) Detecting beta-GAL activity to evaluate anti-HIV activity.
(§3) 7) The antiviral activity and cytotoxicity were calculated according to the following equation: Antiviral activity (%)=100−(Detection value−Maximum value)/(Minimum value−Maximum value)*100 Cytotoxicity (%)=100−(Detection value−Maximum value)/(Minimum value−Maximum value)*100 8) EC50 and CC50 were calculated with Fit Curve of Graphpad Prism 5 (the results are shown in Table 4).

Series [5] can be described thus: Cytotoxicity in cells free of virus (anti-HIV test). Format: cell-based. The following applies: human. As to the method: 3) Cells for the cytotoxic detection were incubated in a 384-well plate for 3 days.
6) Luminescent signal of the cells free of virus was detected to evaluate cytotoxicity after incubation for 3 days.
as §3

The conditions of series [6]: background statement; cited from earlier work.
Setting [7] is: Hepatitis B virus, HepG2.2.15, 144 h.

Read-outs that look alike come from different tables or passages of the source. A value given as a limit tells only on which side of the number the result lay.

What is called IC50 is the concentration that inhibits the measured activity by half. The term CC50 denotes the concentration at which the toxic effect on the cells reaches its halfway point. As to `CC(C)OC(=O)[C@H](C)N[P@](=O)(CO[C@H](C)Cn1cnc2c(N)ncnc21)Oc1ccccc1` [GS-7171, reference compound], the IC50 in the series with hepatitis B virus (HBV) (HepG 2.2.15 cells, 6 days of culture, HBV DNA-replication by dot blot, read-out: IC50) stood at 35 nM. Besides, the CC50 with HepG 2.2.15 cells (6 days of culture, read-out: Toxicity CC50) is above 10000 nM.
In general, EC50 refers to the concentration at which the effect is half-maximal. In the case of `CC(C)OC(=O)[C@H](C)N[P@](=O)(CO[C@H](C)Cn1cnc2c(N)ncnc21)Oc1ccccc1` [GS-7340, reference compound], the midpoint of inhibition in the series with hepatitis B virus (HBV) (setting [7]), the IC50, lay at 14 nM. Also, in series [1], the CC50 at 6 days is above 10000 nM. The Change value was 3.2% in series [2] (37° C., 6 hours) and 4.3% in series [3] (37° C., 6 hours). The “Purity after 6 hours” value is recorded as 95.5% in series [2] (37° C., 6 hours) and 94.4% in series [3] (37° C., 6 hours). In addition, the Initial purity in series [2] (initial sample) and in series [3] (initial sample) was 98.7% each time. Also, the Prototype concentration in series [4] (0 hour, initial concentration, fresh human whole blood) is 16.9 µM; in series [4] (1 hour incubation at 37° C., in PBMCs), 2448 µM; in series [4] (1 hour incubation at 37° C., in plasma) it was 14.5 µM; in series [4] (2 hour incubation at 37° C., in PBMCs), 2357 µM; in series [4] (2 hour incubation at 37° C., in plasma), 13.0 µM. Also, the “change of active metabolite-tenofovir concentration in PBMCs over the incubation time (in words)” value in series [4] (1 hour to 2 hours) is given as “almost the same”. The “change of active metabolite-tenofovir released in plasma over the incubation time (in words)” value in series [4] (1 hour to 2 hours) is recorded as “increased significantly”. Besides, the “active metabolite-tenofovir detected in plasma (in words)” value in series [4] (after incubation with fresh human whole blood) is reported as “certain active metabolite-tenofovir was detected”. Besides, the midpoint of the response in the series with HIV-1 (IIIb) (Human immunodeficiency virus 1, IIIB, MT2, 72 h), the EC50, lay at 12 nM. Also, in [5] (cells free of virus, 3 days, luminescent signal, read-out: Toxicity CC50), the CC50 at 3 days was above 150000 nM. The “metabolite-tenofovir detected in plasma” value in series [6] is 1-2%. Also, the “total concentration of the active ingredient in PBMCs relative to tenofovir” value in series [6] is given as 30 times. In [6], the “total concentration of the active ingredient in PBMCs relative to tenofovir disoproxil” value is given as 10 times.
In the series on hepatitis B virus (HBV) (setting [7]), `CC(C)OC(=O)C(C)(C)N[P@@](=O)(CO[C@H](C)Cn1cnc2c(N)ncnc21)Oc1ccccc1` [Ia2] came in with a 50% inhibitory concentration (IC50) of 32 nM. Also, in series [1], the CC50 at 6 days was above 10000 nM.
`CC(C)OC(=O)C(C)(C)NP(=O)(CO[C@H](C)Cn1cnc2c(N)ncnc21)Oc1ccccc1` (stereo partly shown) [Ia] yielded an IC50 in the series with hepatitis B virus (HBV) (setting [7]) of 21 nM. Further, in [1], the half-maximal cytotoxic concentration (CC50) at 6 days is above 10000 nM.
Regarding `CC(C)OC(=O)C1(N[P@](=O)(CO[C@H](C)Cn2cnc3c(N)ncnc32)Oc2ccccc2)CC1` [Ib1], the “inhibitory effect on HBV-DNA replication (in words)” value (shortened to “inhibitory effect … (in words)”) in the series on hepatitis B virus (HBV) (HepG 2.2.15 cells) is reported as “significant inhibitory effect”. Half-maximal inhibition in the series with hepatitis B virus (HBV) (setting [7]) (IC50) required 15 nM. Besides, the CC50 at 6 days in series [1] is above 10000 nM. For the same compound, the “cytotoxicity (in words)” value with HepG 2.2.15 cells was “without cytotoxicity”.
On to `CC(C)OC(=O)C(C)(C)N[P@](=O)(CO[C@H](C)Cn1cnc2c(N)ncnc21)Oc1ccc(Cl)cc1` [Ic1], for which, in the series with hepatitis B virus (HBV) (HepG 2.2.15 cells), the “inhibitory effect … (in words)” value is “significant inhibitory effect” and the “inhibitory effect on HBV-DNA replication compared with positive control GS7340” value was “better than that of the positive control GS7340”. In the series with hepatitis B virus (HBV) (setting [7]), this compound had an IC50 of 5.3 nM. Besides, in series [1], the CC50 at 6 days is above 10000 nM. In the series on HepG 2.2.15 cells, the “cytotoxicity (in words)” value is recorded as “without cytotoxicity”.
For the compound `COc1ccc(O[P@@](=O)(CO[C@H](C)Cn2cnc3c(N)ncnc32)NC(C)(C)C(=O)OC(C)C)cc1` [Id1], in the series with hepatitis B virus (HBV) (HepG 2.2.15 cells), the “inhibitory effect … (in words)” value is given as “significant inhibitory effect” and the “inhibitory effect on HBV-DNA replication compared with positive control GS7340” value is “better than that of the positive control GS7340”. The compound also yielded an IC50 in the series on hepatitis B virus (HBV) (setting [7]) of 6.2 nM. Moreover, the CC50 at 6 days in series [1] was above 10000 nM. Further, the “cytotoxicity (in words)” value with HepG 2.2.15 cells is given as “without cytotoxicity”.
The matching figures for `CC(C)OC(=O)C(C)(C)N[P@](=O)(CO[C@H](C)Cn1cnc2c(N)ncnc21)Oc1cccc2ccccc12` [If1]: “significant inhibitory effect”, “better than that of the positive control GS7340”, 7.5 nM, above 10000 nM and “without cytotoxicity”.
Take `Cc1cccc(C)c1O[P@@](=O)(CO[C@H](C)Cn1cnc2c(N)ncnc21)NC(C)(C)C(=O)OC(C)C` [Ih1]: in the series on hepatitis B virus (HBV) (HepG 2.2.15 cells), the “inhibitory effect … (in words)” value was “significant inhibitory effect” and the “inhibitory effect on HBV-DNA replication compared with positive control GS7340” value is listed as “better than that of the positive control GS7340”. In addition, in the series with hepatitis B virus (HBV) (setting [7]), the IC50 came out at 5.9 nM. Also, the CC50 at 6 days in series [1] was above 10000 nM. Moreover, in the series with HepG 2.2.15 cells, the “cytotoxicity (in words)” value was “without cytotoxicity”.
In the case of `CC(C)OC(=O)C(C)(C)N[P@](=O)(CO[C@H](C)Cn1cnc2c(N)ncnc21)Oc1ccc(F)cc1` [Ii1], the “inhibitory effect on HBV-DNA replication compared with positive control GS7340” value in the series with hepatitis B virus (HBV) (HepG 2.2.15 cells) is on record as “better than that of the positive control GS7340”. In addition, in the series on hepatitis B virus (HBV) (setting [7]), the 50% inhibitory concentration (IC50) worked out at 8.3 nM. Moreover, in series [1], the CC50 at 6 days was above 10000 nM.
Consider `CC(C)OC(=O)C(C)(C)N[P@](=O)(CO[C@H](C)Cn1cnc2c(N)ncnc21)Oc1ccc(C(F)(F)F)cc1` [Ij1], for which, in the series on hepatitis B virus (HBV) (HepG 2.2.15 cells), the “inhibitory effect … (in words)” value is on record as “significant inhibitory effect” and the “inhibitory effect on HBV-DNA replication compared with positive control GS7340” value is “better than that of the positive control GS7340”. This compound displayed a half-maximal inhibitory concentration (IC50) in the series on hepatitis B virus (HBV) (setting [7]) of 7 nM. Besides, the CC50 at 6 days in series [1] is above 10000 nM. In the series on HepG 2.2.15 cells, the “cytotoxicity (in words)” value is given as “without cytotoxicity”.
On to `CC(C)OC(=O)OCOP(=O)(CO[C@H](C)Cn1cnc2c(N)ncnc21)OCOC(=O)OC(C)C` [Tenofovir Disoproxil, reference compound], for which the EC50 with HIV-1 (IIIb) (Human immunodeficiency virus 1, MT2, 72 h, MT-2 cells infected with HIV-1 (IIIb), 3 days, read-out: EC50) was determined as 11 nM. In series [5], this compound registered a half-maximal cytotoxic concentration (CC50) at 3 days of 16900 nM.
